Experimental data from US20240270701A1, “BETA ADRENERGIC AGONIST AND METHODS OF USING THE SAME” (Curasen Therapeutics, Inc., priority 2021, published 2024).
Like-named read-outs stand apart in the source and are kept apart here.

Key:
B2-AR = target: T1, B2-AR (Homo sapiens, UniProt P07550); assay: cAMP Gs dynamic HTRF assay, cells expressing beta-adrenergic receptor (CHO-K1), B2-AR; format: cell-based; settings: for EC50: cAMP HTRF, read-out: pEC50 [B2-AR] (converted); for Emax: relative to full agonist isoproterenol, read-out: Emax (% iso) (%) [B2-AR]
T1 construct: expressed in transfected cells; host or cells: CHO-K1
T1 sequence (P07550 whole entry, species assumed): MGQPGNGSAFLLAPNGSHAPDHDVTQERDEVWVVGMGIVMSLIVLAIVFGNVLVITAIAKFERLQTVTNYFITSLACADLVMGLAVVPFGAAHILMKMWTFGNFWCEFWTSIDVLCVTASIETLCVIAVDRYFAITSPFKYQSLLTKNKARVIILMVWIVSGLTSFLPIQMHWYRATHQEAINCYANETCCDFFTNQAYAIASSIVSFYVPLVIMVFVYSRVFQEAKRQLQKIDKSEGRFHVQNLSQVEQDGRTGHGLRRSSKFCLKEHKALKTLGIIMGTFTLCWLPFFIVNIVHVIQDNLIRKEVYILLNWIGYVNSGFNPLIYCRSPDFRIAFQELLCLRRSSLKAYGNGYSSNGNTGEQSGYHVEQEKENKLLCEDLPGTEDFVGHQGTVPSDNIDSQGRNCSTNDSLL

B1-AR = target: T2, B1-AR (Homo sapiens, UniProt P08588); assay: cAMP Gs dynamic HTRF assay, cells expressing beta-adrenergic receptor (CHO-K1), B1-AR; format: cell-based; settings: for EC50: cAMP HTRF, read-out: pEC50 [B1-AR] (converted); for Emax: relative to full agonist isoproterenol, read-out: Emax (% iso) (%) [B1-AR]
T2 construct: expressed in transfected cells; host or cells: CHO-K1
T2 sequence (P08588 whole entry, species assumed): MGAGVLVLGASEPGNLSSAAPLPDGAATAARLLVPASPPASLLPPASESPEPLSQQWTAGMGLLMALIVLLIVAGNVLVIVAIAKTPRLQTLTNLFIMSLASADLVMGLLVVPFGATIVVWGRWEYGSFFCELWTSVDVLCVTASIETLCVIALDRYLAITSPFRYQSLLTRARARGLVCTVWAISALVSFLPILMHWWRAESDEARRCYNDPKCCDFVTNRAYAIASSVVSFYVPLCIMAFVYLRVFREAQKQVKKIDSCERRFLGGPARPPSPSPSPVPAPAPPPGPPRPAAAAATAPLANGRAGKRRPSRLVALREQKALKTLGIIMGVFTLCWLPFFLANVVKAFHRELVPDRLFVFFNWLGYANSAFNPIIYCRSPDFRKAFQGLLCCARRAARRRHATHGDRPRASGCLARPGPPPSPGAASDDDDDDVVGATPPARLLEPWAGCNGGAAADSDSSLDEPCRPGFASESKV

`Cn1ccc(CNC[C@H](O)c2cccc3[nH]nc(F)c23)n1` [I-78] gave an EC50 (B2-AR; CHO-K1 cells) of 100 to 1000 nM, an Emax (B2-AR; CHO-K1 cells) of over 90% and an EC50 (B1-AR) of 100 to 1000 nM. The Emax (B1-AR) was 70 to 90%.

`Cc1n[nH]c2cc(F)cc([C@@H](O)CNC(C)(C)C)c12` [I-61] gave an EC50 (B2-AR; CHO-K1 cells) of under 10 nM, an Emax (B2-AR; CHO-K1 cells) of 70 to 90% and an EC50 (B1-AR) of 10 to 100 nM. For the same compound, the Emax (B1-AR) was 70 to 90%.

For `CC1(NC[C@H](O)c2ccc(Cl)c3[nH]ncc23)CC1` [I-120], the Emax (B2-AR; CHO-K1, CHO-K1 cells) was 70 to 90%, the EC50 (B2-AR; CHO-K1 cells) was under 10 nM and the EC50 (B1-AR) was under 10 nM. The Emax (B1-AR) was 70 to 90%.

Compound `CC(C)CNC[C@H](O)c1cncc2[nH]ncc12` [I-163] has an EC50 (B2-AR; CHO-K1 cells) of over 1000 nM, an Emax (B2-AR; CHO-K1 cells) of 50 to 70% and an EC50 (B1-AR) of over 1000 nM. For the same compound, the Emax (B1-AR) was 70 to 90%.

`CC(C)[C@H](C)NC[C@H](O)c1cccc2[nH]ncc12` [I-40] was tested, and the EC50 (B2-AR; CHO-K1 cells) was under 10 nM, the Emax (B2-AR; CHO-K1 cells) was over 90% and the EC50 (B1-AR) was 10 to 100 nM. The Emax (B1-AR) was 70 to 90%.

In the case of `CC(C)C(C)(C)NC[C@H](O)c1ccc(F)c2[nH]ncc12` [I-22], the EC50 (B2-AR; CHO-K1 cells) is reported as under 10 nM, the Emax (B2-AR; CHO-K1 cells) is reported as over 90% and the EC50 (B1-AR) is reported as 10 to 100 nM. For the same compound, the Emax (B1-AR) was over 90%.

With `C[C@H](NC[C@H](O)c1ccc(Cl)c2[nH]ncc12)C(C)(C)C` [I-3] the Emax (B2-AR; CHO-K1, CHO-K1 cells) was 70 to 90%, the EC50 (B2-AR; CHO-K1 cells) was under 10 nM and the EC50 (B1-AR) was 100 to 1000 nM. It also gave an Emax (B1-AR) of 50 to 70%.

In the case of `CC(C)(C)NC[C@H](O)c1ccc2ncncc2c1` [I-77], the Emax (B2-AR; CHO-K1, CHO-K1 cells) is reported as 50 to 70%, the EC50 (B2-AR; CHO-K1 cells) is reported as 100 to 1000 nM and the EC50 (B1-AR) is reported as over 1000 nM. It also gave an Emax (B1-AR) of 50 to 70%.

For `CC1(CNC[C@H](O)c2ccc(F)c3[nH]ncc23)CC1` [I-81], the EC50 (B2-AR; CHO-K1 cells) was under 10 nM, the Emax (B2-AR; CHO-K1 cells) was over 90% and the EC50 (B1-AR) was 10 to 100 nM. For the same compound, the Emax (B1-AR) was 70 to 90%.

For `Cc1n[nH]c2cccc([C@@H](O)CNC3(C)CC3)c12` [I-169], the EC50 (B2-AR; CHO-K1 cells) was 10 to 100 nM, the Emax (B2-AR; CHO-K1 cells) was 70 to 90% and the EC50 (B1-AR) was 100 to 1000 nM. The Emax (B1-AR) was 70 to 90%.

Work on `Cc1cc([C@@H](O)CNC2CC2)c2cn[nH]c2c1` [I-135] yielded an EC50 (B2-AR; CHO-K1 cells) of under 10 nM, an Emax (B2-AR; CHO-K1 cells) of 70 to 90% and an EC50 (B1-AR) of under 10 nM. For the same compound, the Emax (B1-AR) was 70 to 90%.

With `CC1(N[C@H](CO)c2cncc3[nH]ncc23)CC1` [I-148] the EC50 (B2-AR; CHO-K1 cells) was over 1000 nM, the Emax (B2-AR; CHO-K1 cells) was 70 to 90% and the EC50 (B1-AR) was over 1000 nM. The Emax (B1-AR) was 70 to 90%.

`CC(C)(CO)NC[C@H](O)c1cccc2[nH]nc(F)c12` [I-132] showed an Emax (B2-AR; CHO-K1, CHO-K1 cells) of over 90%, an EC50 (B2-AR; CHO-K1 cells) of under 10 nM and an EC50 (B1-AR) of under 10 nM. The Emax (B1-AR) was over 90%.

`CC1(NC[C@H](O)c2cccc3[nH]nc(Cl)c23)CC1` [I-100] showed an Emax (B2-AR; CHO-K1, CHO-K1 cells) of over 90%, an EC50 (B2-AR; CHO-K1 cells) of under 10 nM and an EC50 (B1-AR) of under 10 nM. For the same compound, the Emax (B1-AR) was 70 to 90%.

`N#Cc1cc([C@@H](O)CNC2CC2)c2cn[nH]c2c1` [I-153] showed an EC50 (B2-AR; CHO-K1 cells) of 100 to 1000 nM, an Emax (B2-AR; CHO-K1 cells) of over 90% and an EC50 (B1-AR) of 100 to 1000 nM. The Emax (B1-AR) was 70 to 90%.

`COc1cc([C@@H](O)CNC(C)(C)C)c2cn[nH]c2c1F` [I-59] was tested, and the Emax (B2-AR; CHO-K1, CHO-K1 cells) was under 50%, the EC50 (B2-AR; CHO-K1 cells) was 10 to 100 nM and the EC50 (B1-AR) was 100 to 1000 nM. For the same compound, the Emax (B1-AR) was under 50%.

`CC(C)(C)NC[C@@H](O)c1cncc2[nH]ncc12` [I-66] gave an Emax (B2-AR; CHO-K1, CHO-K1 cells) of over 90%, an EC50 (B2-AR; CHO-K1 cells) of 100 to 1000 nM and an EC50 (B1-AR) of over 1000 nM. For the same compound, the Emax (B1-AR) was 70 to 90%.

With `CC(C)CNC[C@H](O)c1cccc2[nH]ncc12` [I-133] the Emax (B2-AR; CHO-K1, CHO-K1 cells) was over 90%, the EC50 (B2-AR; CHO-K1 cells) was under 10 nM and the EC50 (B1-AR) was 10 to 100 nM. It also gave an Emax (B1-AR) of 70 to 90%.

Compound `CC(C)(C)NC[C@H](O)c1cccc2[nH]nc(C(F)F)c12` [I-175] has an EC50 (B2-AR; CHO-K1 cells) of 100 to 1000 nM, an Emax (B2-AR; CHO-K1 cells) of 70 to 90% and an EC50 (B1-AR) of 100 to 1000 nM. It also gave an Emax (B1-AR) of 70 to 90%.

For `O[C@@H](CNC1CCC1)c1cccc2[nH]ncc12` [I-127], the Emax (B2-AR; CHO-K1, CHO-K1 cells) was over 90%, the EC50 (B2-AR; CHO-K1 cells) was under 10 nM and the EC50 (B1-AR) was under 10 nM. It also gave an Emax (B1-AR) of over 90%.

`C[C@@H](NC[C@H](O)c1ccc(F)c2[nH]ncc12)C(C)(C)C` [I-16] showed an Emax (B2-AR; CHO-K1, CHO-K1 cells) of over 90%, an EC50 (B2-AR; CHO-K1 cells) of under 10 nM and an EC50 (B1-AR) of 10 to 100 nM. For the same compound, the Emax (B1-AR) was over 90%.

`CCC(CC)NC[C@H](O)c1ccc(F)c2[nH]ncc12` [I-37] was tested, and the Emax (B2-AR; CHO-K1, CHO-K1 cells) was 70 to 90%, the EC50 (B2-AR; CHO-K1 cells) was under 10 nM and the EC50 (B1-AR) was 10 to 100 nM. The Emax (B1-AR) was 70 to 90%.

In the case of `Cc1n[nH]c2cccc([C@@H](O)CNCC(C)C)c12` [I-174], the EC50 (B2-AR; CHO-K1 cells) is reported as 100 to 1000 nM, the Emax (B2-AR; CHO-K1 cells) is reported as 50 to 70% and the EC50 (B1-AR) is reported as over 1000 nM. For the same compound, the Emax (B1-AR) was 70 to 90%.

`Cc1c(Cl)[nH]c2cccc([C@@H](O)CNC(C)(C)C)c12` [I-115] showed an Emax (B2-AR; CHO-K1, CHO-K1 cells) of 70 to 90%, an EC50 (B2-AR; CHO-K1 cells) of 100 to 1000 nM and an EC50 (B1-AR) of over 1000 nM. The Emax (B1-AR) was 70 to 90%.

Work on `CC(C)NC[C@H](O)c1cccc2[nH]nc(Cl)c12` [I-101] yielded an EC50 (B2-AR; CHO-K1 cells) of under 10 nM, an Emax (B2-AR; CHO-K1 cells) of over 90% and an EC50 (B1-AR) of under 10 nM. For the same compound, the Emax (B1-AR) was over 90%.

In the case of `CC1(NC[C@H](O)c2cccc3[nH]cc(F)c23)CCC1` [I-110], the Emax (B2-AR; CHO-K1, CHO-K1 cells) is reported as over 90%, the EC50 (B2-AR; CHO-K1 cells) is reported as under 10 nM and the EC50 (B1-AR) is reported as under 10 nM. It also gave an Emax (B1-AR) of over 90%.

`Cc1cnc2ccc([C@@H](O)CNC(C)(C)C)cc2c1` [I-73] was tested, and the EC50 (B2-AR; CHO-K1 cells) was 100 to 1000 nM, the Emax (B2-AR; CHO-K1 cells) was under 50% and the EC50 (B1-AR) was over 1000 nM. For the same compound, the Emax (B1-AR) was under 50%.

`CC(C)(C)NC[C@H](O)c1cnc(N)s1` [I-86] was tested, and the Emax (B2-AR; CHO-K1, CHO-K1 cells) was 70 to 90%, the EC50 (B2-AR; CHO-K1 cells) was 100 to 1000 nM and the EC50 (B1-AR) was over 1000 nM. It also gave an Emax (B1-AR) of 70 to 90%.

`CC(C)(C)CNC[C@H](O)c1cccc2[nH]ncc12` [I-88] showed an EC50 (B2-AR; CHO-K1 cells) of under 10 nM, an Emax (B2-AR; CHO-K1 cells) of over 90% and an EC50 (B1-AR) of 100 to 1000 nM. It also gave an Emax (B1-AR) of 70 to 90%.
